Experiments:
tsFT210 cells = assay: Flow cytometry, G1 transition in tsFT210 cells; type: cell-based, mouse; settings: 5 or 10 μM, additional 6 hours
Cdk1 = assay: Western blotting for Cdk1 phosphorylation status in tsFT210 cells; type: cell-based, mouse; settings: 10 or 20 μM, 6 hours
Description: tsFT210 cells were harvested using the same procedure for cell synchronizing and drug exposure as described above for the G2/M flow cytometric analysis. The protein lysates were analyzed by Western blotting for Cdk1 as described previously (Tamura K, Southwick EC, Kerns J, Rosi K, Carr BI, Wilcox C and Lazo JS (2000) Cdc25 inhibition and cell cycle arrest by a synthetic thioalkyl vitamin K analogue. Cancer Res 60:1317-1325.). The inventors used Cdk1 isolated from human MCF-7 cells to assay for in vitro inhibition of enzyme activity because of available antibodies and convenience. Asynchronous cells grown at 37° C. in 5% CO2 in DMEM containing 10% fetal bovine serum were treated with lysis buffer and harvested as previously described (Vogt A, Wang AS, Johnson CS, Fabisiak JP, Wipf P and Lazo JS (2000) In vivo antitumor activity and induction of insulin-like growth factor-1 resistant apoptosis by SC-ααδ9. J Pharmacol Exptl Therap 292:530-537.). Cdk1 kinase activity assay was performed as previously described (Yu L, Orlandi L, Wang P, Orr MS, Senderowicz AM, Sausville EA, Silvestrini R, Watanabe N, Piwnica-Worms H, O° Connor PM (1998) UCN-01 arogates G2 arrest through a Cdc2-dependent pathway that is associated with inactivation of the WeelHu kinase and activation of the Cdc25C phosphatase. J Biol Chem 273: 33455-33464.). […] Histone H1 was separated from other proteins by SDS-PAGE and analyzed for incorporation of radioactive phosphate with a Molecular Dynamics STORM 860 Phospholmager (Sunnyvale, CA).
The major controlling molecule for G2/M transition is the cyclin dependent kinase, Cdk1, whose cellular activity is tightly regulated by phosphorylation (Pines J (1999) Four-dimensional control of the cell cycle. Nature Cell Biol 1:E73-79., Hunter T and Pines J (1994) Cyclins and cancer II: cyclin D and CDK inhibitors come of age. Cell 79:573-582). […] The protein lysates were analyzed by Western blotting for Cdk1 content and phosphorylation status as described elsewhere herein. […]

recombinant Cdc25 = assay: In vitro inhibition of recombinant Cdc25; type: biochemical; settings: 30 μM, data not shown
VHR = VHR (Homo sapiens, UniProt P51452); assay: In vitro inhibition of VHR; type: biochemical; settings: 30 μM, data not shown
Sequence of VHR (P51452 whole entry, species assumed): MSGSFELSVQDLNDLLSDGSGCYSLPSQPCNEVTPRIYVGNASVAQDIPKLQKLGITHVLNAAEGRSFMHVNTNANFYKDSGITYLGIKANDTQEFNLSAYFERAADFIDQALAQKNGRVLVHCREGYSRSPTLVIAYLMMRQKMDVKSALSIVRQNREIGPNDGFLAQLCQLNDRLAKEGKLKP

PTPIB = target: T1, PTPIB (Homo sapiens, UniProt P18031); assay: In vitro inhibition of PTPIB; type: biochemical; settings: 30 μM, data not shown
T1 sequence (P18031 1-435): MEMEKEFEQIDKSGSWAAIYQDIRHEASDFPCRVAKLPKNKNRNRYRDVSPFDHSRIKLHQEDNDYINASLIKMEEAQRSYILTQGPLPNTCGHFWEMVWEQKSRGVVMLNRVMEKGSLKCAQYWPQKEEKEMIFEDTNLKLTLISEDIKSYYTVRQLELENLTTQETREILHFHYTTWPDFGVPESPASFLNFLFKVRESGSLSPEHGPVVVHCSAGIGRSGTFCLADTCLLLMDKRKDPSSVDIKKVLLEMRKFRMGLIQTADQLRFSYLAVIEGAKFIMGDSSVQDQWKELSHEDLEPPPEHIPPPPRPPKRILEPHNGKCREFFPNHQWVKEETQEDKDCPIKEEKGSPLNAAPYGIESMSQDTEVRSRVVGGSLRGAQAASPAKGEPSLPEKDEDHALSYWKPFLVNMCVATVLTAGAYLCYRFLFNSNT

## O=C1C=CC2(Oc3cccc4cccc(c34)O2)c2cccc(OCc3ccco3)c21 [SR-7, 8-(furan-2-ylmethoxy)-1-oxo-1,4-dihydronaphthalene-4-spiro-2′-naphto [1″,8″-de][1′,3′] dioxin]
tsFT210 cells
  G1 transition: not delayed at G1
Cdk1
  Cdk1 phosphorylation status: Cdk1 was completely dephosphorylated
Recombinant Cdc25
  inhibition of recombinant Cdc25 activity: no inhibition
VHR
  inhibition of VHR activity: no inhibition
PTPIB
  inhibition of PTPIB activity: no inhibition

From US6673937B2, “Syntheses and methods of use of new antimitotic agents” (The University of Pittsburgh, priority 2000, dated 2004)
